According to patent publication US12398121B2 (Nuvation Bio Inc., priority 2018, dated 2025):
Read-outs that look alike come from different tables or passages of the source.

Columns and labels:
[1] = molecular target: Human recombinant PARP1 (Homo sapiens, UniProt P09874); assay: RBC HotSpot PARP1 radioisotope-based filter binding assay; type: biochemical
Outline: (§1)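 Radiometric filter-binding assay: 2.5 nM recombinant enzyme with 20 μM histone (H4 for PARP1, H3 for PARP2) and activated DNA, pH 8.0, 1% DMSO. 20 min preincubation, then 10 μM ^32P-NAD^+ for 2 h at room temperature; filtered radioactivity gives IC50 fits.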

[2] = molecular target: Human recombinant PARP2 (Homo sapiens, UniProt Q9UGN5); assay: RBC HotSpot PARP2 radioisotope-based filter binding assay; type: biochemical
Chain of Human recombinant PARP2 (Q9UGN5 whole entry): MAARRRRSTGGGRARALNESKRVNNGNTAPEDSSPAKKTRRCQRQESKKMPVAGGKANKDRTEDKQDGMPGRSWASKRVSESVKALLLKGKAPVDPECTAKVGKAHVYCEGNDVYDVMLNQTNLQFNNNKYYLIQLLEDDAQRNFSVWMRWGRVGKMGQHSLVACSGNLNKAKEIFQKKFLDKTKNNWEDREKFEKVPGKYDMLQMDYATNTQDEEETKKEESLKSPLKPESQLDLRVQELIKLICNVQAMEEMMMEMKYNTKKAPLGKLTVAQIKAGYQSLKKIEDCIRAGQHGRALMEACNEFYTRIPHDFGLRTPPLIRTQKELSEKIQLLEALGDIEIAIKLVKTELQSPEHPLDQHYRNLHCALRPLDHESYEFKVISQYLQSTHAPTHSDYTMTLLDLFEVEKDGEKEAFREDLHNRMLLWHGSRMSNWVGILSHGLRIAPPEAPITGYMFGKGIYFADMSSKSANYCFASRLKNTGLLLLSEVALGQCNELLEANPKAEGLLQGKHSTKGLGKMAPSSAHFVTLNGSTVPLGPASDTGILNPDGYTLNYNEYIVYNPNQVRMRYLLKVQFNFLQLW
Outline: as §1

[3] = molecular target: T1, AR in LNCaP cytosol (Homo sapiens, UniProt P10275, T878A); assay: AR binding assay (3H-methyltrienolone displacement)
T1 construct: endogenous in cells; host or cells: LNCaP cytosol
T1 sequence (P10275 1-920 T878A): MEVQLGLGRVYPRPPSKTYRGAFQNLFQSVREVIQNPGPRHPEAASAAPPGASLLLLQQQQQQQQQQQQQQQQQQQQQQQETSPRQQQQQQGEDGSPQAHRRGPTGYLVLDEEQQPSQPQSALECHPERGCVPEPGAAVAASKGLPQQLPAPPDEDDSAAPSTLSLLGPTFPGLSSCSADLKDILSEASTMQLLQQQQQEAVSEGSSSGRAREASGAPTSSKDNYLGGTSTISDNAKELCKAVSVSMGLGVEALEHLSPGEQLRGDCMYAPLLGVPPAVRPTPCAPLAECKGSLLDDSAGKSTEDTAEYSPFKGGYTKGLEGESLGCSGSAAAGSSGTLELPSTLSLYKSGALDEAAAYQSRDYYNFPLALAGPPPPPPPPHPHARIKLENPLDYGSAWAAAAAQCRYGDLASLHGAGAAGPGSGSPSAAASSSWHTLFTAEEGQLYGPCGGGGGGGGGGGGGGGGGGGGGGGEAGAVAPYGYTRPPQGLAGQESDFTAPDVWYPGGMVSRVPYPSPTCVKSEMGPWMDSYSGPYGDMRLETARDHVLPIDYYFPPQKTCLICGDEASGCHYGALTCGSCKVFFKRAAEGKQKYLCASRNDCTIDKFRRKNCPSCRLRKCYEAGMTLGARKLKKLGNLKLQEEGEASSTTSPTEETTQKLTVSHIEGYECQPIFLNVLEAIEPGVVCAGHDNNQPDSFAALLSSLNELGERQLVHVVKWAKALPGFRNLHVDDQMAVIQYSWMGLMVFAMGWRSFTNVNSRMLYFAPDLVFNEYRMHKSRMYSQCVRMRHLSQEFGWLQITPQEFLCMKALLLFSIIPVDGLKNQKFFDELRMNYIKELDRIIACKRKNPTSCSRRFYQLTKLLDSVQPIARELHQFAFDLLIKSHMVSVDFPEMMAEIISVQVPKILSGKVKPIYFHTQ
Protocol: The following methods are for evaluating the in vitro biology properties of the test articles. • a. RBC HotSpot Poly(ADP-ribose) Polymerases 1 (PARP1) and Poly(ADP-ribose) Polymerases 2 (PARP2) Assays: The assay principle is radioisotope-based filter binding assay where incorporation of radioisotope-labeled NAD^+ into the substrate captured on filter is detected after washout free NAD^+. Data were analyzed using Excel and GraphPad Prism software for IC50 curve fits. Each assay was conducted with PJ34 as a positive control. • i. PARP1 assay: Human recombinant PARP1 at a final concentration of 2.5 nM was combined with histone H4 (20 μM) and test articles at various concentrations in reaction buffer (50 mM Tris-HCL, pH 8.0, 50 mM NaCl, 10 mM MgCl2, 1 mM DTT, 1% DMSO, and 20 μg/mL activated DNA). The solution was inoculated for 20 min at room temperature and the reaction initiated by adding [adenylate-^32P]-Nicotinamide Adenine Dinucleotide, ^32P-NAD^+ at a final concentration of 10 μM. After incubation for 2 hour at room temperature, the reaction mixture was filtered and washed with 0.75% phosphoric acid for radioactivity detection. • ii. PARP2 assay: Human recombinant PARP2 at a final concentration of 2.5 nM was combined with histone H3 (20 μM) and test articles at various concentrations in reaction buffer (50 mM Tris-HCL, pH 8.0, 50 mM NaCl, 10 mM MgCl2, 1 mM DTT, 1% DMSO, and 20 μg/mL activated DNA). The solution was inoculated for 20 min at room temperature and the reaction was initiated by adding [adenylate-^32P]-Nicotinamide Adenine Dinucleotide, ^32P-NAD^+ at a final concentration of 10 μM. After incubation for 2 hour at room temperature, the reaction mixture was filtered and washed with 0.75% phosphoric acid for radioactivity detection. • b. AR binding assay: AR in LNCaP cytosol was used for determining the binding affinity of test articles and the reference compound—progesterone (Sigma, Cat: E2785, St. Louis, MO). IC50s were determined using 8 concentrations/compound. Cytosol was plated at 200 μg/well (100 μL) into a 96-well conical polypropylene plate (Agilent, Cat: 5042-1385, Santa Clara, CA) and mixed with 3 μL of test compound. After adding 100 μL of ^3H-methyltrienolone (PerkinElmer, Cat: NET590250UC, San Jose, CA), the plate was sealed and shaken at 300 rpm at 4° C. for 24 hours. Post incubation, 100 μL of radioligand adsorption buffer containing 10 mM Tris-HCl, pH 7.4; 1.5 mM EDTA; 1 mM DTT; 0.25% charcoal; 0.0025% dextran was added to individual well. Plate was shaken for 15 min at 4′C followed by centrifugation at 3000 rpm for 30 min at 4° C. 150 μL of supernatant was transferred into scint-tube (PerkinElmer, Cat: 6000192) and mixed with 2 mL of Ultima Gold Cocktail (PerkinElmer, Cat: 6013329). Radioactivity was counted using a TriCarb 2910 TR scintillation counter (PerkinElmer). Inhibition of the radioactivity by test articles were calculated using the equation below: % Inhibition=(1−(Assay well−Average_LC)/(Average_HC−Average_LC))×100%.
IC50 values were calculated and graphed using the model “log(inhibitor) vs. response—Variable slope” included in GraphPad Prism 5 (San Diego, CA). The Ki values were further calculated using the equation below where [L] was the radioligand concentration (1 nM) using in this study. Kd value was 0.332 nM. Ki=IC50/(1+[L]/Kd) c. AR transactivation: Human AR cloned into a CMV vector backbone was used for the transactivation study. HEK-293 cells were plated at 80,000 cells per well of a 24 well plate in DME+5% csFBS. Twenty four hours later, the cells were transfected using Lipofectamine (Invitrogen, Carlsbad, CA) with 0.25 μg GRE-LUC, 0.01 μg CMV-LUC (renilla luciferase) and 25 ng of the AR in OPTIMEM medium. The cells were treated 24 hrs after transfection with various ligands (10^−12 to 10^−5 M final concentrations) and luciferase assay were performed 48 hours after transfection. […]

[4] = 2.5 nM enzyme, histone H4, 10 μM 32P-NAD+, read-out: PARP1 IC50
[5] = 2.5 nM enzyme, histone H3, 10 μM 32P-NAD+, read-out: PARP2 IC50

Chain of Human recombinant PARP1 (P09874 whole entry): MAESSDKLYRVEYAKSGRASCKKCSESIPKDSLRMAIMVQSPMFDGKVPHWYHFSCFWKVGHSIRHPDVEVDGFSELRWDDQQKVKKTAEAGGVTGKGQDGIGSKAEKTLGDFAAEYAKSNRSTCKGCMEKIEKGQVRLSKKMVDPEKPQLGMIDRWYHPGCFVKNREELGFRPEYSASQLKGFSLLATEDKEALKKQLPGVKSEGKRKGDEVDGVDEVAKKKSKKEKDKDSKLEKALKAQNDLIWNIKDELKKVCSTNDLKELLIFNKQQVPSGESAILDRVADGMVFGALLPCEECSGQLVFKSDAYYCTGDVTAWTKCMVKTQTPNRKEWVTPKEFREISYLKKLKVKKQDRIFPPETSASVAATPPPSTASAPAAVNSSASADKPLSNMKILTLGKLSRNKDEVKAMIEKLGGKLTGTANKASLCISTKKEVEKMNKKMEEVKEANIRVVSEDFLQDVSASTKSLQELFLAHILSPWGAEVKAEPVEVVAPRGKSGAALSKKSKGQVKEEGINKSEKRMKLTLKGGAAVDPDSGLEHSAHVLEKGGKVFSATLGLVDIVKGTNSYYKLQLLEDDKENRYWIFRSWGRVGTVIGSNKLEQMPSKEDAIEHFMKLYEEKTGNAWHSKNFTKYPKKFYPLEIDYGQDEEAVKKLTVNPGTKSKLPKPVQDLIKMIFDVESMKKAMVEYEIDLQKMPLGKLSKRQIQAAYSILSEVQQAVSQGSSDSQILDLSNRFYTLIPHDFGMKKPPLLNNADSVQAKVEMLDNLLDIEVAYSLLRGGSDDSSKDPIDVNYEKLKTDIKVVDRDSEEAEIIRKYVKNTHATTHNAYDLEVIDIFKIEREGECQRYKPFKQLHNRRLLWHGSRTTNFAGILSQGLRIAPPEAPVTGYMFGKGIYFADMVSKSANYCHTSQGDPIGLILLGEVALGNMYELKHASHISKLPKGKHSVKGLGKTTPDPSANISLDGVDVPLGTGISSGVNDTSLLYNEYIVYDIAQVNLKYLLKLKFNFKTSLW

SMILES | IC50 [1] [nM] | IC50 [2] [nM] | Ki [3] [nM] | IC50 [1, 4] [nM] | IC50 [2, 5] [nM] | Ki ([3]; Ki=IC50/(1+[L]/Kd), [L] 1 nM, Kd 0.332 nM, read-out: AR Ki) [nM]
C[C@](O)(CS(=O)(=O)c1ccc(NCCCCCC(=O)N2CCN(C(=O)c3cc(Cc4n[nH]c(=O)c5ccccc45)ccc3F)CC2)cc1)C(=O)Nc1ccc(C#N)c(C(F)(F)F)c1 [Compound 1.68, (R)-N-(4-cyano-3-(trifluoromethyl)phenyl)-3-(4-(6-(4-(2-fluoro-5-((4-oxo-3,4-dihydrophthalazin-1-yl)methyl)benzoyl)piperazin-1-yl)-6-oxohexylamino)phenylsulfonyl)-2-hydroxy-2-methylpropanamide] | 0.3 | 0.2 | 907 | – | – | –
CC1(C)C(=O)N(c2ccc(C#N)c(C(F)(F)F)c2)C(=S)N1c1ccc(C(=O)NCCCCCCNCc2ccc(-c3[nH]c4cc(F)cc5c4c3CCNC5=O)cc2)c(F)c1 [Compound 1.5, 4-(3-(4-cyano-3-(trifluoromethyl)phenyl)-5,5-dimethyl-4-oxo-2-thioxoimidazolidin-1-yl)-2-fluoro-N-(6-((4-(8-fluoro-1-oxo-2,3,4,6-tetrahydro-1H-azepino[5,4,3-cd]indol-5-yl)benzyl)amino)hexyl)benzamide] | 23 | 2 | 291 | – | – | –
CC(O)(CS(=O)(=O)c1ccc(NCCn2cc(CN3CCN(C(=O)c4cc(Cc5n[nH]c(=O)c6ccccc56)ccc4F)CC3)nn2)cc1)C(=O)Nc1ccc(C#N)c(C(F)(F)F)c1 (stereo in doubt) [Compound 1.97, (S)-N-(4-cyano-3-(trifluoromethyl)phenyl)-3-(4-(2-(4-((4-(2-fluoro-5-((4-oxo-3,4-dihydrophthalazin-1-yl)methyl)benzoyl)piperazin-1-yl)methyl)-1H-1,2,3-triazol-1-yl)ethylamino)phenylsulfonyl)-2-hydroxy-2-methylpropanamide] | 2 | 0.4 | 504 | – | – | –
C[C@]12CCC(=O)C[C@@H]1CC[C@@H]1[C@@H]2CC[C@@]2(C)[C@H]1CC[C@@]2(O)CCCN1CCN(C(=O)c2cc(Cc3n[nH]c(=O)c4ccccc34)ccc2F)CC1 [Compound 1.119, 4-(4-fluoro-3-(4-(3-((5S,8R,9S,10S,13S,14S,17R)-17-hydroxy-10,13-dimethyl-3-oxohexadecahydro-1H-cyclopenta[a]phenanthren-17-yl)propyl)piperazine-1-carbonyl)benzyl)phthalazin-1(2H)-one] | – | – | 20 | 1.6 | 0.3 | –
C[C@]12CCC(=O)C[C@@H]1CC[C@@H]1[C@@H]2CC[C@]2(C)[C@@H](OCCCCCC(=O)N3CCN(C(=O)c4cc(Cc5n[nH]c(=O)c6ccccc56)ccc4F)CC3)CC[C@@H]12 [Compound 1.2, 4-(3-(4-(6-(((5S,8R,9S,10S,13S,14S,17S)-10,13-dimethyl-3-oxohexadecahydro-1H-cyclopenta[a]phenanthren-17-yl)oxy)hexanoyl)piperazine-1-carbonyl)-4-fluorobenzyl)phthalazin-1(2H)-one] | – | – | 1.31 | 3 | 0.2 | –
C[C@](O)(COc1ccc(NCCCCCC(=O)N2CCN(C(=O)c3cc(Cc4n[nH]c(=O)c5ccccc45)ccc3F)CC2)cc1)C(=O)Nc1ccc(C#N)c(C(F)(F)F)c1 [Compound 1.83, (S)-N-(4-cyano-3-(trifluoromethyl)phenyl)-3-(4-(6-(4-(2-fluoro-5-((4-oxo-3,4-dihydrophthalazin-1-yl)methyl)benzoyl)piperazin-1-yl)-6-oxohexylamino)phenoxy)-2-hydroxy-2-methylpropanamide] | – | – | 139 | 0.7 | 0.3 | –
C[C@]12CCC(=O)C[C@@H]1CC[C@@H]1[C@@H]2CC[C@]2(C)[C@@H](OCCOCC(=O)N3CCN(C(=O)c4cc(Cc5n[nH]c(=O)c6ccccc56)ccc4F)CC3)CC[C@@H]12 [Compound 1.104, 4-(3-(4-(2-(2-((5S,8R,9S,10S,13S,14S,17S)-10,13-dimethyl-3-oxohexadeca hydro-1H-cyclopenta[a]phenanthren-17-yloxy)ethoxy)acetyl)piperazine-1-carbonyl)-4-fluorobenzyl)phthalazin-1(2H)-one] | – | – | – | 1.2 | 0.3 | 167
